The test is described as follows: Clinical evaluation of HHT888-10 in patients with otitis media or sore throat. Particulars: sixth patient; initial treatment with Erythromycin, Bactrium, and Naproxen together. Type of test: in vivo, human. How it is done: The extract powder prepared in Example IB of Pogostemon cablin (HHT888-10) was administered orally to a patient with recurrent otitis media at a dosage of 2 g twice a day ( total 4 gms per day) for 3 days.
A sixth patient was treated for sore throat, headache and fever. […] On the fifth day, the patient was treated with HHT888-10 at 2 g b.i.d. p.o. for 2 days.

For `COc1ccc2cc([C@H](C)C(=O)O)ccc2c1` [Naproxen], the fever and headache result was “subsided”; the sore throat entry is “became worse”.
The like results for `CC[C@H]1OC(=O)[C@H](C)[C@@H](O[C@H]2C[C@@](C)(OC)[C@@H](O)[C@H](C)O2)[C@H](C)[C@@H](O[C@@H]2O[C@H](C)C[C@H](N(C)C)[C@H]2O)[C@](C)(O)C[C@@H](C)C(=O)[C@H](C)[C@@H](O)[C@]1(C)O` [Erythromycin] were, in that order, “subsided” and “became worse”.
On to Bactrium, for which the fever and headache entry is on record as “subsided”; the sore throat entry is “became worse”.

These data come from patent US20020106416A1, “Composition for inhibition of H. influenzae and treatment of otitis media and sore throat” (priority 1996, published 2002).
